Read-outs that look alike come from different tables or passages of the source.
What was measured:
[1] = system: Human colon cancer HT-29 transplantable tumor; assay: Human colon cancer HT-29 transplantable tumor in nude mice; conditions: HT-29 in nude mice, 60 mg/kg ig 9 times
[2] = system: mice S180 sarcoma; assay: Experimental therapeutic action on S180 sarcoma mice; conditions: mice S180 sarcoma, 60 mg/kg orally for 9 days
[3] = system: human umbilical vein endothelial cell HUVEC; assay: Growth of human umbilical vein endothelial cell HUVEC by CCK8 method; type: cell-based; conditions: Final concentration 1 x 1.0*10^(−5) mol/L
From the text: 7. Effects of tested compounds on the growth of human umbilical vein endothelial cell HUVEC cell by CCK8 method
[Test materials] CCK8, human umbilical vein endothelial cell HUVEC cell, 1640 medium containing 10% FBS
(§1) [Tested compound] Compounds 1-38 to be tested
(§2) [Positive control medicine] Sorafenib, compounds A′, B′, C′ with no substituent or only amino formyl in A ring
(§3) Relative OD value of conrol well=OD value of control well−OD value of blank well
(§4) Relative OD value of drug well=OD value of drug well−OD value of blank well

[4] = system: renal carcinoma cell line GCR-1 transplanted tumor; type: in vivo, BALB/cA nude mice; conditions: BALB/cA nude mice; 60 mg/kg, 6 times every week for 3 weeks; Sorafenib oral 60 mg/kg
Method: 11. Tumor inhibition rate of medicines on renal carcinoma cell line GCR-1 transplanted tumor model in nude mice
(§5) [Test animals] female BALB/cA nude mice, 35-40 days old, with weight of 18-22g. There were 12 mice in the negative conrol group and 6 mice in the treatment group.
[Test method] […] The dosage of the medicine was 60 mg/kg, 6 times every week for 3 weeks. […] Equal amount of normal saline was administrated in the negative control group. Observe for one week after administration.

[5] = system: human lung cancer cell strain A549; assay: MTT assay, inhibition of growth of human lung cancer cell strain A549; type: cell-based
Method: 4. Using 3-(4,5-dimethylthiazol-2-yl)-2,5-diphenyl tetrazolium bromide assay (MTT) to detect the inhibition effects on the growth of human lung cancer cell strain A549
[Test materials] MTT working solution, F12 medium containing 10% FBS, continuous injectors
(§6) [Tested compound] Compounds 1-38
as §2
The inhibition rate is calculated as follows:
as §3, §4

[6] = system: human umbilical vein endothelial cell HUVEC; assay: Lumen formation ability of HUVEC (Matrigel method); type: cell-based; conditions: Final concentration 1 x 1.0*10^(−5) mol/L
From the text: 8. Inhibition effects of compounds on the lumen formation ability of human umbilical vein endothelial cell HUVEC
[Experimental principles] The human umbilical vein endothelial cells have ability of spontaneously forming blood lumen on Matrigel, which can be used to simulate the process of angiogenesis in vivo. We used Matrigel method to investigate the effects of the compound on the lumen formation ability of human umbilical vein endothelial cell HUVEC.
[Test materials] HUVEC (taking generation 3 to 5 cells for experiments after obtained from primary separation and cultured at 37 under the conditions of 5% CO2), Matrigel, cell culture medium M199.
as §6, §2
(§7) The inhibition rate is calculated as follows: […]

[7] = system: lung cancer cell A549; assay: Effects on the adhesive ability of lung cancer cell A549; type: cell-based, human; conditions: Final concentration 1 x 1.0*10^(−5) mol/L
Method: 6. Effects of tested compounds on the adhesive ability of lung cancer cell A549
[Test materials] gelatin, CCK8, poly-lysine (PLL), A549 cell stains, 1640 medium containing 10% FBS
as §1, §2, §7
Dosing dosing cells without cell group (gelatin adhesive OD/PLL adhesion OD)−Dosing cell group (gelatin adhesive OD/PLL adhesion OD value)
Dosing dosing cells without cell group (gelatin adhesive OD/PLL adhesion OD value)

[8] = system: human liver cancer cell bel-7402 transplantation tumor; type: in vivo; conditions: BALB/cA nude mice; 60 mg/kg, 6 times every week for 3 weeks; Sorafenib oral 60 mg/kg
Method: 10. Tumor inhibition rate of tested compounds on human liver cancer cell bel-7402 transplantation tumor model in nude mice
as §5
(§8) The dosage of the compound was 60 mg/kg, 6 times every week for 3 weeks. […] Equal amount of normal saline was administrated in the negative control group. Observe for one week after administration.

[9] = system: human high-metastic lung cancer cell 95D; assay: Inhibition of human high-metastic lung cancer cell 95D migration (Boyden Chamber Transwell); type: cell-based; conditions: Final concentration 1 x 1.0*10^(−5) mol/L
Method: 5 Inhibition effects of compounds on human high-metastic lung cancer cell 95D migration
[Test materials] Boyden Chamber Transwell chamber (with pore size of 8 μm), human high-metastic lung cancer cell 95D cell strain, 1640 medium containing 10% FBS, 1640 medium containing no serum
as §6, §2, §7

[10] = system: Raf-1(truncated); assay: Raf-1 inhibitor screening by chemoluminescence method; type: biochemical; conditions: Final concentration 1 x 1.0*10^−5 mol/ml
From the text: 1. Inhibitory activity of the compound of the present invention on raf kinase
Raf-1 inhibitor screening by chemoluminescence method
Westernblot electrophoresis apparatus Rotaryshaker
Raf-1(truncated), Magnesium/ATP Cocktail, MEK1 unactive

[11] = system: human lung cancer A549 transplantation tumor; type: in vivo; conditions: BALB/cA nude mice; 60 mg/kg, 6 times every week for 3 weeks; Sorafenib oral 60 mg/kg
Method: 9. Tumor inhibition rate of tested compounds on human lung cancer A549 cell transplantation model in nude mice
as §5, §8

[12] = Final concentration 1 x 1.0*10^(−5) mol/L

Row | Compound | Relative tumor reproduction rate T/C (%) [1] [%] | Tumor growth inhibition rate (%) [2] [%] | Inhibition rate, growth of HUVEC cell [3] [%] | Relative tumor reproduction rate T/C (%) on human renal carcinoma GCR-1 cell transplanted tumor model in nude mice [4] [%] | Inhibition rate, growth of human lung cancer cell A549 [5, 12] [%] | Inhibition rate, lumen formation ability of HUVEC [6] [%] | Inhibition rate, adhesion ability of human lung cancer cell A549 [7] [%] | Relative tumor reproduction rate T/C (%) on human liver cancer cell bel-7402 transplantation tumor model in nude mice [8] [%] | Inhibition rate, 95D cell strain migration [9] [%] | Inhibition rate % on raf kinase [10] [%] | Relative tumor reproduction rate T/C (%) on human lung cancer A549 transplantation tumor in nude mice [11] [%] | Inhibition rate, growth of human lung cancer cell A549 [5] [%]
1 | COc1ccc2nccc(Oc3ccc(NC(=O)Nc4ccc(Cl)c(C(F)(F)F)c4)cc3)c2c1 [Compound 16] | 55.2 | 33.6 | 10.71 | 9.9 | 89.71 | 80.79 | 90.77 | 14.9 | 89.31 | 62.1 | 9.9 | –
2 | COc1ccc2nccc(Oc3ccc(NC(=O)Nc4ccc(F)c(C(F)(F)F)c4)cc3)c2c1 [Compound 17] | 54.7 | 44.2 | 13.52 | 11.1 | 88.52 | 67.50 | 97.50 | 12.5 | 90.52 | 58.2 | 7.3 | –
3 | COc1ccc2nccc(Oc3ccc(NC(=O)Nc4ccc(Br)c(C(F)(F)F)c4)cc3)c2c1 [Compound 18] | 40.2 | 35.7 | 5.71 | 12.3 | 90.71 | 63.71 | 93.72 | 12.7 | 93.73 | 34.4 | 12.5 | –
4 | O=C(Nc1ccc(Oc2ncnc3cc(F)ccc23)cc1)Nc1ccc(Cl)c(C(F)(F)F)c1 [Compound 19, N-(4-chloro-3-(trifluoromethyl)phenyl)-N′-(4-(4-(7 fluoroquinazolinyl)oxy)phenyl)urea] | 39.4 | 50.8 | 5.23 | 13.2 | – | 89.22 | 90.28 | 16.3 | 90.21 | 93.5 | 7.7 | 91.23
5 | O=C(Nc1ccc(Oc2ncnc3cc(F)ccc23)cc1)Nc1ccc(F)c(C(F)(F)F)c1 [Compound 20, N-(4-fluoro-3-(trifluoromethyl)phenyl)-N′-(4-(4-(7 fluoroquinazolinyl)oxy)phenyl)urea] | 40.1 | 54.6 | 7.32 | 13.1 | – | 88.54 | 95.31 | 17.2 | 89.12 | 87.7 | 12.1 | 88.32
6 | O=C(Nc1ccc(Oc2ncnc3cc(F)ccc23)cc1)Nc1ccc(Br)c(C(F)(F)F)c1 [Compound 21, N-(4-bromo-3-(trifluoromethyl)phenyl)-N′-(4-(4-(7 fluoroquinazolinyl)oxy)phenyl)urea] | 38.7 | 59.7 | 11.21 | 7.8 | – | 89.47 | 90.22 | 16.4 | 88.76 | 98.9 | 13.7 | 89.21
7 | COc1ncncc1Oc1ccc(NC(=O)Nc2ccc(Cl)c(C(F)(F)F)c2)cc1 [Compound 22, N-(4-chloro-3-(trifluoromethyl)phenyl)-N′-(4-(5-(4-methoxypyrimidinyl)oxy)phenyl)urea] | 41.2 | 52.1 | 12.49 | 8.1 | – | 86.72 | 72.44 | 15.3 | 88.77 | 88.1 | 15.3 | 82.49

From patent US8957087B2, “Heterocyclic substituted acardite derivate and application thereof” (Jiangsu Provincial Institute of Materia Medica Co., Ltd., priority 2009, dated 2015)
